Experimental data from PubChem BioAssay AID214 (DTP/NCI, 2004).
Where “and” joins values, the source holds several entries; their conditions need not be identical. Identical values can stand only once. Records with an inconclusive call do not appear.

Test system: B6C3F1 mice, colon carcinoma 38 s.c., T/C
Test: NCI In Vivo Anticancer Drug Screen. Data for tumor model Colon Carcinoma 38 (subcutaneous) in B6C3F1 mice
Details: higher = larger tumour
Protocol: The antitumor activity of compounds was measured in mice bearing transplantable tumors. Survival or tumor size were measured and the results are expressed as the measurement made in the treated group (T) divided by the measurement made in the vehicle treated control group (C). The tumor model used in this assay is Colon Carcinoma 38 (subcutaneous) in B6C3F1 mice

[1] = endpoint: median tumor weight (est.), dose: 4.0 mg/kg/injection, schedule: Q07DX002 (ip), vehicle: saline
[2] = endpoint: median tumor weight (est.), dose: 100.0 mg/kg/injection, schedule: Q07DX002 (ip), vehicle: saline with Tween-80
[3] = endpoint: median tumor weight (est.), dose: 200.0 mg/kg/injection, schedule: Q07DX002 (ip), vehicle: saline with Tween-80
[4] = endpoint: median tumor weight (est.), dose: 50.0 mg/kg/injection, schedule: Q07DX002 (ip), vehicle: saline
[5] = endpoint: median tumor weight (est.), dose: 100.0 mg/kg/injection, schedule: Q07DX002 (ip), vehicle: saline
[6] = endpoint: median tumor weight (est.), dose: 200.0 mg/kg/injection, schedule: Q07DX002 (ip), vehicle: saline
[7] = endpoint: median tumor weight (est.), dose: 400.0 mg/kg/injection, schedule: Q07DX002 (ip), vehicle: saline
[8] = endpoint: median tumor weight (est.), dose: 100.0 mg/kg/injection, schedule: Q07DX002 (ip), vehicle: Klucel (hydroxypropylcellulose) (HPC)
[9] = endpoint: median tumor weight (est.), dose: 400.0 mg/kg/injection, schedule: Q07DX002 (ip), vehicle: Klucel (hydroxypropylcellulose) (HPC)

SMILES: O=c1[nH]cc(F)c(=O)[nH]1
- T/C (endpoint: median tumor weight (est.), dose: 8.75 mg/kg/injection, schedule: Q07DX002 (ip), vehicle: saline): 59 % of control
- T/C (endpoint: median tumor weight (est.), dose: 24.0 mg/kg/injection, schedule: Q01DX006 (ip), vehicle: saline): 9 % of control
- T/C (endpoint: median tumor weight (est.), dose: 36.0 mg/kg/injection, schedule: Q01DX006 (ip), vehicle: saline): 7 % of control
- T/C (endpoint: optimum tumor weight change, dose: 35.0 mg/kg/injection, schedule: Q07DX002 (ip), vehicle: saline): 48 % of control
- T/C (endpoint: optimum tumor weight change, dose: 70.0 mg/kg/injection, schedule: Q07DX002 (ip), vehicle: saline): 46 % of control
- T/C (endpoint: optimum tumor weight change, dose: 140.0 mg/kg/injection, schedule: Q07DX002 (ip), vehicle: saline): 45 % of control

SMILES: CO[C@@]12[C@H](COC(N)=O)C3=C(C(=O)C(C)=C(N)C3=O)N1C[C@@H]1N[C@@H]12
- T/C (endpoint: median tumor weight (est.), dose: 0.5 mg/kg/injection, schedule: Q07DX002 (ip), vehicle: saline): 77 % of control
- T/C [1]: 18 % of control and 19 % of control

SMILES: CCCCCCCCCCCCCCCCCCCCCC(=O)Nc1ccn(C2OC(CO)C(O)C2O)c(=O)n1 (centres undefined)
- T/C [2]: 83 % of control
- T/C [3]: 35 % of control

SMILES: O=P1(N(CCCl)CCCl)NCCCO1 (centres undefined)
- T/C (endpoint: median tumor weight (est.), dose: 25.0 mg/kg/injection, schedule: Q07DX002 (ip), vehicle: saline): 44 % of control
- T/C [4]: 52 % of control
- T/C [5]: 13 % of control
- T/C [6]: 7 % of control

SMILES: O=C(c1cccnc1)c1cc(-c2ccccn2)c(=O)n2ccccc12
- T/C [6]: 75 % of control
- T/C [7]: 83 % of control
- T/C (endpoint: median tumor weight (est.), dose: 800.0 mg/kg/injection, schedule: Q07DX002 (ip), vehicle: saline): 88 % of control

SMILES: COC1C(CO)OC(n2cnc3c(=S)nc(N)[nH]c32)C1O (centres undefined)
- T/C [8]: 110 % of control
- T/C (endpoint: median tumor weight (est.), dose: 200.0 mg/kg/injection, schedule: Q07DX002 (ip), vehicle: Klucel (hydroxypropylcellulose) (HPC)): 46 % of control
- T/C [9]: 51 % of control
- T/C (endpoint: median tumor weight (est.), dose: 800.0 mg/kg/injection, schedule: Q07DX002 (ip), vehicle: Klucel (hydroxypropylcellulose) (HPC)): 13 % of control

SMILES: Cc1c(N)nc(C(CC(N)=O)NCC(N)C(N)=O)nc1C(=O)NC(C(=O)NC(C)C(O)CC(=O)NC(C(=O)NC(OC1OC(C)C(N)C(O)C1O)C(O)c1nc(-c2nc(C(=O)NCCCC(N)CC(=O)NCCCNCCCCN)cs2)cs1)C(C)O)C(OC1OC(CO)C(O)C(O)C1OC1OC(CO)C(O)C(OC(N)=O)C1O)c1cnc[nH]1 (centres undefined)
- T/C [1]: 36 % of control
- T/C (endpoint: median tumor weight (est.), dose: 8.0 mg/kg/injection, schedule: Q07DX002 (ip), vehicle: saline): 15 % of control
- T/C (endpoint: median tumor weight (est.), dose: 16.0 mg/kg/injection, schedule: Q07DX002 (ip), vehicle: saline): 8 % of control
- T/C (endpoint: median tumor weight (est.), dose: 32.0 mg/kg/injection, schedule: Q07DX002 (ip), vehicle: saline): 1 % of control

SMILES: Cc1cc(=O)c2cccc(CC(=O)O)c2o1
- T/C [9]: 117 % of control

SMILES: CC1CCC(NC(=O)N(CCCl)N=O)CC1 (centres undefined)
- T/C (endpoint: median tumor weight (est.), dose: 4.0 mg/kg/injection, schedule: Q07DX002 (ip), vehicle: Klucel (hydroxypropylcellulose) (HPC)): 101 % of control
- T/C (endpoint: median tumor weight (est.), dose: 8.0 mg/kg/injection, schedule: Q07DX002 (ip), vehicle: Klucel (hydroxypropylcellulose) (HPC)): 69 % of control
- T/C (endpoint: median tumor weight (est.), dose: 16.0 mg/kg/injection, schedule: Q07DX002 (ip), vehicle: Klucel (hydroxypropylcellulose) (HPC)): 34 % of control
- T/C (endpoint: median tumor weight (est.), dose: 32.0 mg/kg/injection, schedule: Q07DX002 (ip), vehicle: Klucel (hydroxypropylcellulose) (HPC)): 17 % of control

SMILES: Cc1cc(NCCCN(C)C)c2ccc3c(ccc4c(NCCCN(C)C)cc(C)nc43)c2n1
- T/C (endpoint: median tumor weight (est.), dose: 0.78 mg/kg/injection, schedule: Q07DX002 (ip), vehicle: saline): 97 % of control
- T/C (endpoint: median tumor weight (est.), dose: 1.56 mg/kg/injection, schedule: Q07DX002 (ip), vehicle: saline): 91 % of control
- T/C (endpoint: median tumor weight (est.), dose: 3.12 mg/kg/injection, schedule: Q07DX002 (ip), vehicle: saline): 115 % of control
- T/C (endpoint: median tumor weight (est.), dose: 6.25 mg/kg/injection, schedule: Q07DX002 (ip), vehicle: saline): 100 % of control

SMILES: O=[N+]([O-])c1ccc(N2CCOCC2)c2c1no[n+]2[O-]
- T/C (endpoint: median tumor weight (est.), dose: 50.0 mg/kg/injection, schedule: Q07DX002 (ip), vehicle: saline with Tween-80): 165 % of control
- T/C [2]: 98 % of control
- T/C [3]: 103 % of control

SMILES: O=c1[nH]cccc1O
- T/C (endpoint: median tumor weight (est.), dose: 62.5 mg/kg/injection, schedule: Q07DX002 (ip), vehicle: saline with Tween-80): 91 % of control
- T/C (endpoint: median tumor weight (est.), dose: 125.0 mg/kg/injection, schedule: Q07DX002 (ip), vehicle: saline with Tween-80): 90 % of control and 97 % of control
- T/C (endpoint: median tumor weight (est.), dose: 250.0 mg/kg/injection, schedule: Q07DX002 (ip), vehicle: saline with Tween-80): 90 % of control and 95 % of control
- T/C (endpoint: median tumor weight (est.), dose: 500.0 mg/kg/injection, schedule: Q07DX002 (ip), vehicle: saline with Tween-80): 95 % of control and 70 % of control
- T/C (endpoint: median tumor weight (est.), dose: 1000.0 mg/kg/injection, schedule: Q07DX002 (ip), vehicle: saline with Tween-80): 74 % of control

SMILES: C[CH2][Sn]([CH2]C)([CH2]C(=O)OC)[CH2]C(=O)OC
- T/C (endpoint: median tumor weight (est.), dose: 1.56 mg/kg/injection, schedule: Q07DX002 (ip), vehicle: saline with Tween-80): 51 % of control
- T/C (endpoint: median tumor weight (est.), dose: 3.12 mg/kg/injection, schedule: Q07DX002 (ip), vehicle: saline with Tween-80): 113 % of control
- T/C (endpoint: median tumor weight (est.), dose: 6.25 mg/kg/injection, schedule: Q07DX002 (ip), vehicle: saline with Tween-80): 109 % of control
- T/C (endpoint: median tumor weight (est.), dose: 12.5 mg/kg/injection, schedule: Q07DX002 (ip), vehicle: saline with Tween-80): 65 % of control
- T/C (endpoint: median tumor weight (est.), dose: 25.0 mg/kg/injection, schedule: Q07DX002 (ip), vehicle: saline with Tween-80): 74 % of control

SMILES: C=C(Cl)C(=NC(C)(C)C)Nc1ccccc1C
- T/C [8]: 88 % of control

SMILES: CC(=O)CC(=O)CCC(=O)O
- T/C [4]: 87 % of control
- T/C [5]: 88 % of control
- T/C [6]: 86 % of control
- T/C [7]: 89 % of control

SMILES: NC(CSC(c1ccccc1)(c1ccccc1)c1ccccc1)C(=O)O (centres undefined)
- T/C (endpoint: median tumor weight (est.), dose: 32.0 mg/kg/injection, schedule: Q07DX002 (ip), vehicle: saline with Tween-80): 87 % of control
- T/C (endpoint: median tumor weight (est.), dose: 32.0 mg/kg/injection, schedule: Q07DX003 (ip), vehicle: saline with Tween-80): 46 % of control
- T/C (endpoint: median tumor weight (est.), dose: 64.0 mg/kg/injection, schedule: Q07DX002 (ip), vehicle: saline with Tween-80): 81 % of control
- T/C (endpoint: median tumor weight (est.), dose: 64.0 mg/kg/injection, schedule: Q07DX003 (ip), vehicle: saline with Tween-80): 105 % of control
- T/C (endpoint: median tumor weight (est.), dose: 128.0 mg/kg/injection, schedule: Q07DX002 (ip), vehicle: saline with Tween-80): 63 % of control
- T/C (endpoint: median tumor weight (est.), dose: 128.0 mg/kg/injection, schedule: Q07DX003 (ip), vehicle: saline with Tween-80): 72 % of control
- T/C (endpoint: median tumor weight (est.), dose: 256.0 mg/kg/injection, schedule: Q07DX002 (ip), vehicle: saline with Tween-80): 30 % of control
- T/C (endpoint: median tumor weight (est.), dose: 256.0 mg/kg/injection, schedule: Q07DX003 (ip), vehicle: saline with Tween-80): 45 % of control
- T/C (endpoint: median tumor weight (est.), dose: 512.0 mg/kg/injection, schedule: Q07DX002 (ip), vehicle: saline with Tween-80): 2 % of control

SMILES: C[n+]1c(-c2cccc(OCCOCCOc3cccc(-c4c5cc(N)ccc5c5ccc(N)cc5[n+]4C)c3)c2)c2cc(N)ccc2c2ccc(N)cc21
- T/C (endpoint: median tumor weight (est.), dose: 4.0 mg/kg/injection, schedule: Q07DX002 (ip), vehicle: water): 71 % of control
- T/C (endpoint: median tumor weight (est.), dose: 8.0 mg/kg/injection, schedule: Q07DX002 (ip), vehicle: water): 54 % of control
- T/C (endpoint: median tumor weight (est.), dose: 16.0 mg/kg/injection, schedule: Q07DX002 (ip), vehicle: water): 85 % of control and 66 % of control
- T/C (endpoint: median tumor weight (est.), dose: 64.0 mg/kg/injection, schedule: Q07DX002 (ip), vehicle: water): 33 % of control and 52 % of control

SMILES: CCN(CC)CCOCCO
- T/C (endpoint: median tumor weight (est.), dose: 50.0 mg/kg/injection, schedule: Q07DX002 (ip), vehicle: suspension in saline): 150 % of control
- T/C (endpoint: median tumor weight (est.), dose: 100.0 mg/kg/injection, schedule: Q07DX002 (ip), vehicle: suspension in saline): 160 % of control

SMILES: COC12C(COC(=O)NCCO)C3=C(C(=O)C(C)=C(N)C3=O)N1CC1NC12 (centres undefined)
- T/C (endpoint: median tumor weight (est.), dose: 12.5 mg/kg/injection, schedule: Q07DX002 (ip), vehicle: Klucel (hydroxypropylcellulose) (HPC)): 65 % of control
- T/C (endpoint: median tumor weight (est.), dose: 25.0 mg/kg/injection, schedule: Q07DX002 (ip), vehicle: Klucel (hydroxypropylcellulose) (HPC)): 50 % of control
- T/C (endpoint: median tumor weight (est.), dose: 50.0 mg/kg/injection, schedule: Q07DX002 (ip), vehicle: Klucel (hydroxypropylcellulose) (HPC)): 12 % of control

SMILES: CNC(=O)c1cccc2c(Nc3ccc(NS(C)(=O)=O)cc3OC)c3cccc(C)c3nc12
- T/C (endpoint: median tumor weight (est.), dose: 6.25 mg/kg/injection, schedule: Q07DX002 (ip), vehicle: water): 60 % of control
- T/C (endpoint: median tumor weight (est.), dose: 12.5 mg/kg/injection, schedule: Q07DX002 (ip), vehicle: water): 48 % of control
- T/C (endpoint: median tumor weight (est.), dose: 25.0 mg/kg/injection, schedule: Q07DX002 (ip), vehicle: water): 17 % of control
- T/C (endpoint: median tumor weight (est.), dose: 50.0 mg/kg/injection, schedule: Q07DX002 (ip), vehicle: water): 4 % of control
